Data taken from US6376670B1, “Quinoline-indole antimicrobial agents, uses and compositions related thereto” (Sepracor Inc., priority 1997, dated 2002).
Where two headings read alike, the source gives them in different places.

Key:
Test in all cases: Determination of MIC values (BHI broth, 96 well microtiter plate)
Type in all cases: cell-based
Streptococcus pneumoniae = details: Streptococcus pneumoniae, BHI broth, read-out: MIC S. pneu
Method in brief: (§1)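 Broth microdilution in BHI broth used final compound concentrations of 25 to 0.39 μg/mL, diluted from DMSO solutions. Inoculum was 10^5–10^6 cells/mL from cultures grown to a 0.5 McFarland standard. Plates were incubated overnight (~16 h) at 37 °C in about 7–10% CO2; MIC was the lowest concentration with no visible growth.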

[1] = test system: vancomycin-resistant Enterococcus spp. (VRE); details: Enterococcus, VRE, BHI broth, read-out: MIC VREF
Method in brief: as §1

[2] = test system: methicillin-resistant Staphylococcus aureus (MRSA); details: MRSA, BHI broth; for MIC: Staphylococcus aureus, read-out: MIC MRSA
Method in brief: as §1

[3] = 37° C., overnight (about 16 hours)
[4] = 16 h, 37° C., overnight (about 16 hours)

| SMILES | MIC (Streptococcus pneumoniae; [3]) [µg/mL] | MIC [1, 4] [µg/mL] | MIC [2, 4] [µg/mL] | MIC (Streptococcus pneumoniae; S. pneu, overnight 37° C.) [µg/mL] | MIC ([1]; VREF, overnight 37° C.) [µg/mL] | MIC MRSA ([2]; overnight 37° C.) [µg/mL] | MIC ([2]; overnight 37° C.) [µg/mL] |
| --- | --- | --- | --- | --- | --- | --- | --- |
| NCc1ccc(CNC(=O)c2cc(-c3c[nH]c4ccc(Br)cc34)nc3cc4c(cc23)OCO4)cc1 [Example 144] | < 25 | < 25 | < 7 |  |  |  |  |
| NCc1ccc(CNC(=O)c2cc(-c3cnc4ccccc4c3)nc3ccc(I)cc23)cc1 [Example 151] | > 25 | > 25 | > 25 |  |  |  |  |
| NCc1ccc(CNC(=O)c2cc(-c3c[nH]c4ccccc34)nc3ccc(I)cc23)cc1 [Example 159] | < 25 | < 25 | < 7 |  |  |  |  |
| c1ccc2nc(-c3c[nH]c4ccccc34)ccc2c1 [Example 163] | > 25 | > 25 | < 25 |  |  |  |  |
| O=C(NCc1nc2ccccc2[nH]1)c1cc(-c2c[nH]c3ccc(Br)cc23)nc2ccc(I)cc12 [Example 173] | < 7 | > 25 | < 7 |  |  |  |  |
| COc1ccc(NC(=O)c2cc(-c3c[nH]c4ccc(Br)cc34)nc3ccc(I)cc23)cc1 [Example 174] | < 25 | > 25 | < 7 |  |  |  |  |
| O=C(Nc1ccc(O)cc1)c1cc(-c2c[nH]c3ccc(Br)cc23)nc2ccc(I)cc12 [Example 175] | < 7 | < 25 | < 7 |  |  |  |  |
| Fc1ccc2[nH]cc(-c3ccc4ccccc4n3)c2c1 [Example 181] | < 7 | < 25 | < 7 |  |  |  |  |
| Fc1ccc2c(-c3ccc4ccccc4n3)c[nH]c2c1 [Example 183] | > 25 | > 25 | < 25 |  |  |  |  |
| c1ccc(COc2ccc3[nH]cc(-c4ccc5ccccc5n4)c3c2)cc1 [Example 184] | < 7 | > 25 | > 25 |  |  |  |  |
| Fc1ccc2[nH]cc(-c3ccc4cc(Cl)ccc4n3)c2c1 [Example 191] | < 7 | < 25 | < 7 |  |  |  |  |
| Clc1ccc2nc(-c3c[nH]c4ccc(OCc5ccccc5)cc34)ccc2c1 [Example 194] | < 7 | > 25 | < 7 |  |  |  |  |
| COc1ccc2[nH]cc(-c3ccc4cc(Cl)ccc4n3)c2c1 [Example 195] | > 25 | > 25 | > 25 |  |  |  |  |
| O=[N+]([O-])c1ccc2[nH]cc(-c3ccc4cc(Cl)ccc4n3)c2c1 [Example 196] | < 25 | > 25 | < 7 |  |  |  |  |
| Cc1cccc2c(-c3ccc4cc(Cl)ccc4n3)c[nH]c12 [Example 199] | > 25 | > 25 | > 25 |  |  |  |  |
| N#Cc1ccc2[nH]cc(-c3ccc4cc(Cl)ccc4n3)c2c1 [Example 200] |  |  |  | > 25 | > 25 | < 7 |  |
| Clc1ccc2nc(-c3c[nH]c4cccc(Cl)c34)ccc2c1 [Example 201] |  |  |  | < 7 | < 25 |  | < 7 |
| Clc1ccc2nc(-c3c[nH]c4cc(Cl)ccc34)ccc2c1 [Example 202] |  |  |  | < 7 | > 25 |  | < 7 |
| CC(=O)Oc1cccc2[nH]cc(-c3ccc4cc(Cl)ccc4n3)c12 [Example 204] |  |  |  | < 7 | < 25 |  | < 7 |
| NCc1ccc(CNC(=O)c2cc(-c3c[nH]c4ccc(Br)cc34)nc3ccc(C#CCN4CCNCC4)cc23)cc1 [Example 208] |  |  |  | < 25 | < 25 |  | < 7 |
| NCc1ccc(CNC(=O)c2cc(-c3c[nH]c4ccc(Br)cc34)nc3cc(Cl)cc(Cl)c23)cc1 [Example 209] |  |  |  | < 7 | < 7 |  | < 7 |
| Cn1cc(-c2ccc3cc(Cl)ccc3n2)c2c(F)cccc21 [Example 211] |  |  |  | > 25 | > 25 |  | < 25 |
| Cc1cccc2c(-c3ccc4cc(Cl)ccc4n3)cn(C)c12 [Example 217] |  |  |  | < 7 | < 25 |  | < 25 |
| Cn1cc(-c2ccc3cc(Cl)ccc3n2)c2cc(C#N)ccc21 [Example 218] |  |  |  | > 25 | > 25 |  | < 7 |
| Cn1cc(-c2ccc3cc(Cl)ccc3n2)c2ccc(Cl)cc21 [Example 219] |  |  |  | < 25 | > 25 |  | > 25 |
| Cn1cc(-c2ccc3cc(Cl)ccc3n2)c2cc(O)ccc21 [Example 221] |  |  |  | < 7 | < 7 |  | < 7 |
| NCc1ccc(CNC(=O)c2cc(-c3c[nH]c4ccc(Br)cc34)nc3ccc(C#CCNCCc4ccccc4)cc23)cc1 [Example 223] |  |  |  | < 7 | < 7 |  | < 7 |
| NCc1ccc(CNC(=O)c2cc(-c3c[nH]c4ccc(Cl)cc34)nc3ccc(I)cc23)cc1 [Example 224] |  |  |  | < 7 | < 7 |  | < 7 |

Further lines, results first:

| MIC (Streptococcus pneumoniae; [3]) [µg/mL] | MIC [1, 4] [µg/mL] | MIC [2, 4] [µg/mL] | MIC (Streptococcus pneumoniae; S. pneu, overnight 37° C.) [µg/mL] | MIC ([1]; VREF, overnight 37° C.) [µg/mL] | MIC MRSA ([2]; overnight 37° C.) [µg/mL] | MIC ([2]; overnight 37° C.) [µg/mL] | SMILES |
| --- | --- | --- | --- | --- | --- | --- | --- |
| < 7 | < 7 | < 7 |  |  |  |  | NCc1cccc(CNC(=O)c2cc(-c3c[nH]c4ccc(Br)cc34)nc3ccc(Cl)cc23)c1 [Example 134] |
| < 7 | < 7 | < 7 |  |  |  |  | O=C(c1cc(-c2c[nH]c3ccc(Br)cc23)nc2ccc(Cl)cc12)N1CCNCC1 [Example 136] |
| < 7 | < 7 | < 7 |  |  |  |  | NCc1ccc(CNC(=O)c2cc(-c3c[nH]c4ccc(Br)cc34)nc3cc(Br)ccc23)cc1 [Example 138] |
| < 7 | < 7 | < 7 |  |  |  |  | NCc1ccc(CNC(=O)c2cc(-c3c[nH]c4ccc(Br)cc34)nc3c(Br)cccc23)cc1 [Example 139] |
| < 7 | < 7 | < 7 |  |  |  |  | NCc1ccc(CNC(=O)c2cc(-c3c[nH]c4ccc(Br)cc34)nc3cc(Cl)ccc23)cc1 [Example 142] |
| < 7 | < 7 | < 7 |  |  |  |  | NCc1ccc(CNC(=O)c2cc(-c3c[nH]c4ccc(Br)cc34)nc3c(Cl)cccc23)cc1 [Example 143] |
| < 7 | > 25 | < 7 |  |  |  |  | Clc1ccc2nc(-c3c[nH]c4ccc(Br)cc34)ccc2c1 [Example 153] |
| < 7 | < 7 | < 7 |  |  |  |  | NCc1ccc(COCc2cc(-c3c[nH]c4ccc(Br)cc34)nc3ccc(C(F)(F)F)cc23)cc1 [Example 154] |
| < 7 | < 7 | < 7 |  |  |  |  | NCc1ccc(CNC(=O)c2cc(-c3c[nH]c4ccc(Br)cc34)nc3cc(Cl)c(I)cc23)cc1 [Example 158] |
| < 7 | < 7 | < 7 |  |  |  |  | Cc1ccc2c(C(=O)NCc3ccc(CN)cc3)cc(-c3c[nH]c4ccc(Br)cc34)nc2c1 [Example 161] |
| < 7 | < 5 | < 7 |  |  |  |  | Clc1ccc2nc(-c3c[nH]c4ccccc34)ccc2c1 [Example 164] |
| < 7 | < 7 | < 7 |  |  |  |  | Brc1ccc2[nH]cc(-c3ccc4ccccc4n3)c2c1 [Example 165] |
| < 7 | > 25 | < 7 |  |  |  |  | Clc1ccc2[nH]cc(-c3ccc4ccccc4n3)c2c1 [Example 168] |
| < 7 | > 25 | < 7 |  |  |  |  | Clc1ccc2nc(-c3c[nH]c4ccc(Cl)cc34)ccc2c1 [Example 169] |
| < 7 | > 25 | < 7 |  |  |  |  | COc1ccc(NC(=O)c2cc(-c3c[nH]c4ccc(Br)cc34)nc3ccc(C(F)(F)F)cc23)cc1 [Example 170] |
| < 7 | < 7 | < 7 |  |  |  |  | O=C(Nc1ccc(O)cc1)c1cc(-c2c[nH]c3ccc(Br)cc23)nc2ccc(C(F)(F)F)cc12 [Example 171] |
| < 7 | > 25 | < 7 |  |  |  |  | O=C(NCc1nc2ccccc2[nH]1)c1cc(-c2c[nH]c3ccc(Br)cc23)nc2ccc(C(F)(F)F)cc12 [Example 172] |
